A short description of data set [1]: Dissolution of diclofenac, dissolution test first liquid (pH 1.2). Format: physicochemical. As for the experimental part:
(§1) Specifically, The Japanese Pharmacopoeia dissolution test first solution (1,000 mL of a liquid prepared by dissolving 2.0 g of sodium chloride and 7.0 mL of hydrochloric acid in water, pH 1.2) and dissolution test second solution (50 mL of phosphate buffer solution, pH 6.8 (a liquid prepared by mixing water with a liquid, which had been prepared by dissolving 3.4 g of potassium dihydrogen phosphate and 3.55 g of anhydrous disodium hydrogen phosphate in water to give 1,000 mL, at the mixing ratio of 1:1, pH 6.8)) were used as the test liquids, and the test was performed at 37±0.5 degrees Celsius and at the rotational speed of 50 rpm.

Data set [2] in a line: Dissolution of diclofenac, dissolution test second liquid (pH 6.8). Format: physicochemical. The following applies: for Diclofenac concentration pH 6.8: 2 mg diclofenac, 37 degrees Celsius, 50 rpm. As for the experimental part:
as §1

The results in this text go back to patent US20260224503A1, “METHOD FOR PRODUCING PARTICLE, AND PARTICLE PRODUCED BY THE METHOD AND MEDICAMENT” (Ricoh Company, Ltd., priority 2018, published 2026).

Consider `O=C(O)Cc1ccccc1Nc1c(Cl)cccc1Cl` [diclofenac bulk powder, diclofenac], for which the “dissolution of diclofenac, in words” value in data set [1] is “prompt elusion”; in data set [2] (dissolution test second liquid (pH 6.8)) it was “sustained release”. Further, the “Diclofenac concentration pH 6.8” value was 0 μg/mL in data set [2] (collection time 0 min); 20.92 ± 0.66 μg/mL in data set [2] (collection time 10 min); 19.83 ± 0.74 μg/mL in data set [2] (collection time 20 min); 20.07 ± 0.59 μg/mL in data set [2] (collection time 30 min); 19.97 ± 0.22 μg/mL in data set [2] (collection time 40 min); 20.42 ± 0.46 μg/mL in data set [2] (collection time 60 min). For the same compound, the figures for the “Diclofenac concentration pH 6.8” value in data set [2] (collection time 90 min) and in data set [2] (collection time 120 min) were 20.21 ± 0.54 μg/mL and 20.45 ± 0.69 μg/mL, respectively.
